Measurements reported in ChEMBL document CHEMBL1154938 (Bioorg Med Chem Lett, 2010).
pIC50: −log10 of the molar value.

How the values were obtained:
[1] = target: C-C chemokine receptor type 5 (Homo sapiens, UniProt P51681); assay: Displacement of […] from human CCR5 receptor coexpressed with Galphai6 in CHO cells after 2 hrs by scintillation counting; assay type: cell-based
[2] = tested on: Human immunodeficiency virus 1; assay: Antiviral activity against CCR5-tropic recombinant HIV1 NLBal virus infected in JC53-BL cells assessed as inhibition of viral replication after 3 days by luciferase reporter gene assay; assay type: functional, organism-based; settings: Human immunodeficiency virus 1, NLBal, JC53BL, 72 h

Chain of C-C chemokine receptor type 5 (P51681 whole entry): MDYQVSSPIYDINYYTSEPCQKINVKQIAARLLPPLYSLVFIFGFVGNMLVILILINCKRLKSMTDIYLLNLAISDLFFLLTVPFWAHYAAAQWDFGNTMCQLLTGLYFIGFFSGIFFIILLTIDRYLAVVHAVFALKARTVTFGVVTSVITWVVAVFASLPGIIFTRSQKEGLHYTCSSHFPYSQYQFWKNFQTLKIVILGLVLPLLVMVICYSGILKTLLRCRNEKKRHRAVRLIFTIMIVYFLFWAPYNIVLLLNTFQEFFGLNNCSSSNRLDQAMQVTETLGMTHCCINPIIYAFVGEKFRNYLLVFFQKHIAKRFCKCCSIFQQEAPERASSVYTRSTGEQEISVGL

Row | pIC50 [1] | pIC50 [2] | SMILES
1 | 7.52 | ≤ 6.20 | Cc1nnc(C)n1[C@@H]1C[C@@H]2CN(CC[C@H](NC(=O)C3CCOCC3)c3cccc(F)c3)C[C@@H]2C1
2 | 7.74 | 6.68 | Cc1nnc(C)n1[C@@H]1C[C@@H]2CN(CC[C@H](NC(=O)C3CCOC3)c3cccc(F)c3)C[C@@H]2C1 (some centres not stated)
3 | 7.46 | 7.40 | Cc1nnc(C)n1[C@H]1C[C@@H]2CN(CC[C@H](NC(=O)C3CCOC3)c3cccc(F)c3)C[C@@H]2C1 (some centres not stated)
4 | 7.37 | ≤ 6.20 | Cc1nnc(C)n1[C@H]1C[C@@H]2CN(CC[C@H](NC(=O)C3CCOCC3)c3cccc(F)c3)C[C@@H]2C1
5 | 8.10 | 7.39 | Cc1nnc(C)n1[C@@H]1C[C@@H]2CN(CC[C@H](NC(=O)C3CCC(F)(F)CC3)c3cccc(F)c3)C[C@@H]2C1
6 | 7.42 | ≤ 6.20 | Cc1nnc(C)n1C1CCN(CC[C@H](NC(=O)C2CCC(F)(F)CC2)c2cccc(F)c2)CC1
7 | 8.22 | 6.70 | Cc1nnc(C)n1[C@H]1C[C@@H]2CN(CC[C@H](NC(=O)C3CC(F)(F)C3)c3cccc(F)c3)C[C@@H]2C1
8 |  | 7.09 | Cc1nnc(C)n1[C@H]1C[C@@H]2CN(CC[C@H](NC(=O)C3CCC(F)(F)CC3)c3cccc(F)c3)C[C@@H]2C1
9 |  | ≤ 6.20 | Cc1nnc(C)n1C1CCN(CC[C@H](NC(=O)C2CCOC2)c2cccc(F)c2)CC1 (some centres not stated)
10 | 8.22 | 7.13 | Cc1nnc(C)n1[C@@H]1C[C@@H]2CN(CC[C@H](NC(=O)C3CC(F)(F)C3)c3cccc(F)c3)C[C@@H]2C1
11 |  | 8.55 | Cc1nnc(C(C)C)n1[C@H]1C[C@H]2CC[C@@H](C1)N2CC[C@H](NC(=O)C1CCC(F)(F)CC1)c1ccccc1 [MARAVIROC]

Row | SMILES | pIC50 [1] | pIC50 [2]
12 | Cc1nnc(C)n1[C@H]1C[C@H]2CC[C@@H](C1)N2CC[C@H](NC(=O)C1CC(F)(F)C1)c1cccc(F)c1 | 8.30 | 7.62
13 | Cc1nnc(C)n1[C@H]1C[C@H]2CC[C@@H](C1)N2CC[C@H](NC(=O)C1CCC(F)(F)CC1)c1cccc(F)c1 | 8.30 | 8.30
14 | Cc1nnc(C)n1[C@H]1C[C@H]2CC[C@@H](C1)N2CC[C@H](NC(=O)C1CCOCC1)c1cccc(F)c1 | 7.89 | 6.66
15 | Cc1nnc(C)n1[C@H]1C[C@H]2CC[C@@H](C1)N2CC[C@H](NC(=O)C1CCOC1)c1cccc(F)c1 (some centres not stated) | 8.15 | 7.21
